Test results taken from ChEMBL document CHEMBL1201862, “PubChem BioAssay data set” (2004).
Activity calls are given as the source filed them.

Assays:
HEK293 [1] = experiment: inhibition of NOD1-driven NF-kB reporter – cell-based, luminescence, uHTS, primary screen (AID 1578); type: functional; details: Homo sapiens
HEK293 [2] = experiment: cells; type: functional, cell-based; details: Homo sapiens
HEK293 [3] = experiment: cells; type: functional, cell-based; details: Homo sapiens; remark: listed apart in the source
[4] = target: Nucleotide-binding oligomerization domain-containing protein 2 (Homo sapiens, UniProt Q9HC29); experiment: inhibition of NOD2-driven NF-kB reporter – cell-based, luminescence, uHTS, HEK293 (AID 1566); type: functional
Sequence of Nucleotide-binding oligomerization domain-containing protein 2 (Q9HC29 whole entry, the tested form may be a part): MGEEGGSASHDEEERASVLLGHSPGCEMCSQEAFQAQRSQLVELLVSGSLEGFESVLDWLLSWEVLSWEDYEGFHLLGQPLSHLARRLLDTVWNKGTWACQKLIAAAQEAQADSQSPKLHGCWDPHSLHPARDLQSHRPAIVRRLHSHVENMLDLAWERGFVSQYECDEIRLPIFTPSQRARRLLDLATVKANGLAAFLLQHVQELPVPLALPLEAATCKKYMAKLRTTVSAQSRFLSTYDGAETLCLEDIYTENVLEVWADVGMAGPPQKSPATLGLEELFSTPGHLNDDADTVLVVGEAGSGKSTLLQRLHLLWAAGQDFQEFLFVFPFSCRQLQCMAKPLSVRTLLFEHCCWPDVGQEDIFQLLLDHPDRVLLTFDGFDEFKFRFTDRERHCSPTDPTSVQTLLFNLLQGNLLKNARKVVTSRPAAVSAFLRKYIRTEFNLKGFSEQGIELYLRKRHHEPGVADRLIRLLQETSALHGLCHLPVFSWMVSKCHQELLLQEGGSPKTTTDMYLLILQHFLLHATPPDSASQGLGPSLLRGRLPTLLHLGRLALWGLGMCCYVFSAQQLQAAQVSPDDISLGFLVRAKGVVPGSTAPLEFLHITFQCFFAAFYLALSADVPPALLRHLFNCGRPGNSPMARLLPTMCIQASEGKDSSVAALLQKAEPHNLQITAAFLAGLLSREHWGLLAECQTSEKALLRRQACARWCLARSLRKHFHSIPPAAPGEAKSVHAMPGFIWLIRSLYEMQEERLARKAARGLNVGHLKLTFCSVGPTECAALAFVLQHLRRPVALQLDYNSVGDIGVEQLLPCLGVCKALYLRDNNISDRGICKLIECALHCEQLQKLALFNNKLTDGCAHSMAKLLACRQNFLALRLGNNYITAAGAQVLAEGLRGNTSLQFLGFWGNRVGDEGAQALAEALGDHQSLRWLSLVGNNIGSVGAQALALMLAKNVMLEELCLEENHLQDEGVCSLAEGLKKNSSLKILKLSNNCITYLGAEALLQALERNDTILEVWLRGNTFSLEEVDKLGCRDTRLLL

HEK293 [5] = experiment: NOD2 signaling inhibitors in MDP-stimulated cells, cell-based, uHTS, luminescence (AID 2001); type: functional; details: Homo sapiens
HEK293 [6] = experiment: cells; type: functional, cell-based; details: Homo sapiens; remark: listed apart in the source
[7] = A549 cell cytotoxicity, dose response, cytotoxicity control, plate reader, cherry-pick, antagonist series (AID 743412); type: functional, cell-based
[8] = blockers of bursicon-stimulated LGR2 cAMP reporter – cell-based, HEK293, CRE-luciferase reporter, cherry pick, set 2, dose response (AID 743343); type: functional;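 note: transfected cells were stimulated with diluted bursicon conditioned medium after compound addition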
[9] = blockade of melanocortin 4 receptor signaling – cell-based, plate reader, cherry pick, counter-screen for LGR2 antagonist project, dose response (AID 743444); type: functional;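 note: transfected HEK 293 cells stimulated with alpha-MSH peptide; potency of inhibitors of the alpha-MSH evoked signal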
[10] = target: T1, Heat shock factor protein 1 (Mus musculus, UniProt P38532); experiment: decrease of HSF1-responsive luciferase luminescence – cell-based, NIH3T3, dose retest, confirmation (AID 2382); type: functional;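 note: NIH3T3 fibroblasts with HSF1-driven luciferase reporter stressed by proteasome inhibitor MG132; luminescence from HSF1-driven luciferase expression after 8 hours of MG132 stress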
T1 sequence (P38532 whole entry): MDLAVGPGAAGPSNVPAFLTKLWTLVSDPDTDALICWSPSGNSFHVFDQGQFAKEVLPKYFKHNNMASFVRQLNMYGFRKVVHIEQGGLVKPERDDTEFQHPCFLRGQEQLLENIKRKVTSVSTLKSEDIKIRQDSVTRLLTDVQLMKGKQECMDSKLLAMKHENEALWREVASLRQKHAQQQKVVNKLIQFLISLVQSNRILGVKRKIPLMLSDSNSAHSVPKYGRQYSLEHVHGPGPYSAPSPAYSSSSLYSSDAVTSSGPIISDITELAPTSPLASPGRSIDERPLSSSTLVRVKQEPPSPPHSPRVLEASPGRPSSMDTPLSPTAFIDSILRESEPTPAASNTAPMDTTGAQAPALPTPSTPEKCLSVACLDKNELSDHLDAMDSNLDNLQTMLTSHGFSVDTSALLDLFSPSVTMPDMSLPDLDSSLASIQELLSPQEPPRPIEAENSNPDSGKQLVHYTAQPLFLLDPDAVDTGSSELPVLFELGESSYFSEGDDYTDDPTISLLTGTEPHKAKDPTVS

[11] = target: Photoreceptor-specific nuclear receptor (Homo sapiens, UniProt Q9Y5X4); type: functional, cell-based;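 note: CHO-S cells with Gal4-NCOR and VP16-NR2E3 two-hybrid luciferase reporter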
Sequence of Photoreceptor-specific nuclear receptor (Q9Y5X4 whole entry, the tested form may be a part): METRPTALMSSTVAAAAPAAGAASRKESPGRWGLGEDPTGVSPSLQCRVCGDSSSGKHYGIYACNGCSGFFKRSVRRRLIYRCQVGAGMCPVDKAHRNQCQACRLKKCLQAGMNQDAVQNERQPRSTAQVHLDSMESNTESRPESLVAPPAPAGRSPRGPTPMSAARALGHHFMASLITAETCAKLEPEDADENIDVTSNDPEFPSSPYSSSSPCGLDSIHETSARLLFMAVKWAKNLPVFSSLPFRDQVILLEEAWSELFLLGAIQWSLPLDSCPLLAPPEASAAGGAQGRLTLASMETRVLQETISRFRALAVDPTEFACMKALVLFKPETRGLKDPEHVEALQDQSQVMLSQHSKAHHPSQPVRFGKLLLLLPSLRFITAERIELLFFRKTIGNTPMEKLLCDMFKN

[12] = viability of uninfected HEp-2 cells – cell-based, HTS, cytotoxicity control for RSV inhibitor project, dose response (AID 2410); type: functional; details: human respiratory syncytial virus
[13] = blockers of HIV-1 envelope-mediated cell-cell fusion – cherry-pick, dose response (AID 652057); type: functional, cell-based
[14] = blockers of HIV-1 ZM109 envelope-driven cell-cell fusion – HeLa effector, CEM target cells, luciferase, cherry-pick, dose response (AID 652058); type: functional, cell-based;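 note: luciferase signal from HIV-1 Env mediated cell-cell fusion of effector and target cells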
[15] = off-target signal loss in HeLa-CEM21 co-culture – HeLa F-luc CTL cells, cherry-picked, counter-screen for HIV-1 Env fusion inhibitor project, dose response (AID 652040); type: functional, cell-based;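 note: potency for signal decrease marking cytotoxic or nonspecific inhibition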
[16] = HIV-1 AD8 envelope cell-cell fusion blockers – cherry-pick, dose response (AID 652062); type: functional, cell-based;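 note: luciferase signal from cell-cell fusion driven by HIV-1 clade B AD8 Env; potency is for inhibitors of fusion seen as a drop in luminescence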
cells [17] = experiment: cells
[18] = target: T2, Low molecular weight phosphotyrosine protein phosphatase (Homo sapiens, UniProt P24666); type: functional; details: read-out: IC50_Mean
T2 sequence (P24666 whole entry): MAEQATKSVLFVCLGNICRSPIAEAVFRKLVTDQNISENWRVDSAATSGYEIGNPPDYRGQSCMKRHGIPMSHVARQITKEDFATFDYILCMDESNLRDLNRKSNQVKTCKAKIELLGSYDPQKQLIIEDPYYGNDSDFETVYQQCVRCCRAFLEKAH

[19] = target: T2, Low molecular weight phosphotyrosine protein phosphatase; type: functional; details: read-out: IC50_Mean; remark: listed apart in the source
[20] = luciferase reporter signal suppression in cells – H4 neuroglioma cells, luminescence, dose response (AID 1990); type: functional, cell-based
[21] = luciferase reporter signal reduction – luminescence, H4-C neuroglioblastoma cells, dose response (AID 2458); type: functional, cell-based;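 note: H4 neuroglioblastoma cells stably carrying a luciferase reporter gene fusion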
BJ [22] = experiment: BJ-TERT fibroblast viability loss – cell-based, RAS-independent, luminescence, dose response (AID 1933); type: functional; details: Homo sapiens
cells [23] = type: functional, cell-based
[24] = Luminescence Cell-Based Dose Response HTS to Identify Inhibitors of 5'UTR Stem-Loop Driven Prion Protein mRNA Translation in H4 Neuroglioblastoma Cells. [Related pubchem assays: 1827 (Project Summary), 1813 (Primary HTS)]; type: functional
[25] = alpha-synuclein stem-loop luciferase translation blockers – H4 neuroglioma cells, luminescence, confirmation (AID 1988); type: functional, cell-based
BJ [26] = experiment: cells; type: functional, cell-based; details: Homo sapiens
BJ [27] = experiment: BJ-TERT-LT-ST fibroblast viability loss – cell-based, RAS-independent, luminescence, dose response (AID 1935); type: functional; details: Homo sapiens;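 note: BJ fibroblasts immortalized with TERT plus LT and ST oncogenes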
[28] = DRD fibroblast viability loss – cell-based, non-viral oncogenic, luminescence, dose response (AID 1934); type: functional; details: Homo sapiens
[29] = alpha-synuclein stem-loop translation blockers – luminescence, H4 neuroglioblastoma cells, dose confirmation, confirmation (AID 2454); type: functional, cell-based;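 note: H4 neuroglioblastoma cells carrying an alpha-synuclein 5'UTR luciferase reporter; potency for inhibition of the luciferase signal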
cells [30] = type: functional, cell-based; remark: listed apart in the source
[31] = target: T3, Nuclear receptor subfamily 0 group B member 1 (Homo sapiens, UniProt P51843); type: functional, cell-based;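 note: HEK293T cells transfected with SF-1 and DAX-1 plus StAR promoter luciferase reporter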
T3 sequence (P51843 whole entry): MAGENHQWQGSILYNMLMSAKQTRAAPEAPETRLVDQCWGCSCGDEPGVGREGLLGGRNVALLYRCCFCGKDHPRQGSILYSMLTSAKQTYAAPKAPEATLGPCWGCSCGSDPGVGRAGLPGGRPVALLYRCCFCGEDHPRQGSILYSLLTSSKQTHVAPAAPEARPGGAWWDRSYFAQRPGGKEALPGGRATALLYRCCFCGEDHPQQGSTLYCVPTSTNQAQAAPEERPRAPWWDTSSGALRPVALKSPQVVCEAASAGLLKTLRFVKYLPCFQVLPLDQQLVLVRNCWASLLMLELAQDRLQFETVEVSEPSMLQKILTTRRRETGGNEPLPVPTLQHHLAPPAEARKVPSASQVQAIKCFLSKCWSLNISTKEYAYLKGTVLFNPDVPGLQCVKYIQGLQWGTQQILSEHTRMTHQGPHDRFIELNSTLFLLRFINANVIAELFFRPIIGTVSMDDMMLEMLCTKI

COc1ccc(-n2ncc3c(N(C)C4CCCCC4)ncnc32)cc1
EC50 (HEK293 [1]): 7.56 µM (active)
IC50 (HEK293 [2]): 8.11 µM (active)
IC50 (HEK293 [3]): > 20 µM (inactive)
EC50 [4]: < 0.31 µM (inactive)
IC50 (HEK293 [5]): 10.7 µM (inactive)
IC50 (HEK293 [6]): > 20 µM (inactive)
AC50 [7]: > 52 µM (inactive)
AC50 [8]: 0.246 µM (active)
AC50 [9]: 0.578 µM (active)

CCOC(=O)Cc1nnc2c(Nc3ccccc3F)nc3nonc3n12
EC50 [10]: > 195 µM (not active)
IC50 [11]: 3.87 µM (active)

O=C(NCc1ccco1)c1ccc(Cn2c(=O)c3sccc3n(Cc3ccc(F)cc3)c2=O)cc1
CC50 [12]: 44.8 µM (active)
AC50 [13]: < 0.26 µM (active)
AC50 [14]: 0.349 µM (active)
AC50 [15]: < 0.26 µM (active)
AC50 [16]: 0.665 µM (active)
IC50 (cells [17]): 4.76 µM (active)

CCCCCn1c(N)c(-c2nc3ccccc3o2)c2c([N+](=O)[O-])nn(CC)c(=O)c21
IC50 [18]: 5.88 µM (active)
IC50 [19]: 8.25 µM (active)

Cc1sc(NC(=O)/C=C/c2ccc3c(c2)OCO3)nc1-c1ccccc1
IC50 [11]: 7.04 µM (active)

CCOC(=O)CSC1=C(C#N)C(c2ccc(C)o2)CC(=O)N1 (configuration not stated)
EC50 [20]: 2.61 µM (active)
EC50 [21]: 0.961 µM (active)
EC50 (BJ [22]): 1.31 µM (active)
EC50 (cells [23]): 1.56 µM (active)
EC50 [24]: 0.894 µM (active)
EC50 [25]: < 0.1 µM (active)
EC50 (BJ [26]): 14.9 µM (active)
EC50 (BJ [27]): 1.36 µM (active)
EC50 [28]: 1.04 µM (active)
EC50 [29]: > 12 µM (inconclusive)
IC50 (cells [30]): > 67.6 µM (inactive)
IC50 [31]: > 67.6 µM (inactive)
